From PubChem BioAssay (NCI)
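GI50 = concentration required for 50% inhibition of growth. The concentration for full growth arrest is given as TGI.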

How the values were obtained:
Experiment in all cases: NCI-60 cell line screen, 384-well format
[1] = test system: MALME-3M melanoma
[2] = test system: SF-295 CNS
[3] = test system: U251 glioblastoma
[4] = test system: MDA-MB-231 breast
[5] = test system: HCT-15 colon
[6] = test system: UACC-257 melanoma
[7] = test system: OVCAR-3 ovarian
[8] = test system: SF-268 CNS
[9] = test system: OVCAR-5 ovarian
[10] = test system: SK-MEL-2 melanoma
[11] = test system: DU-145 prostate
[12] = test system: HCT-116 colon
[13] = test system: SK-OV-3 ovarian

`C=CC(=O)Nc1cc(Nc2nccc(-c3cn(C)c4ccccc34)n2)c(OC)cc1N(C)CCN(C)C` showed a GI50 [1] of 1.15 µM, a TGI [1] of 2.54 µM and a GI50 [2] of 2.62 µM. For the same compound, the TGI [2] was 6.33 µM, the GI50 [3] was 1.8 µM and the TGI [3] was 3.25 µM. For the same compound, the GI50 [4] was 1.79 µM, the TGI [4] was 3.21 µM and the GI50 [5] was 1.25 µM. For the same compound, the TGI [5] was 2.6 µM, the GI50 [6] was 0.84 µM and the TGI [6] was 1.58 µM. It also gave a GI50 [7] of 1.13 µM, a TGI [7] of 2.46 µM and a GI50 [8] of 1.49 µM. For the same compound, the TGI [8] was 3.23 µM, the GI50 [9] was 1.62 µM and the TGI [9] was 3.93 µM. For the same compound, the GI50 [10] was 0.354 µM, the TGI [10] was 1.2 µM and the GI50 [11] was 1.14 µM. For the same compound, the TGI [11] was 2.61 µM, the GI50 [12] was 1.61 µM and the TGI [12] was 3.02 µM. It also gave a GI50 [13] of 1.74 µM and a TGI [13] of 5.73 µM.

Work on `Cn1cc(-c2cc3c(N4CCN(c5ncc([C@@](C)(N)c6ccc(F)cc6)cn5)CC4)ncnn3c2)cn1` yielded a GI50 [1] of 2.46 µM, a TGI [1] of 5.79 µM and a GI50 [2] of 3.72 µM. The TGI [2] was 19.9 µM, the GI50 [3] was 3.54 µM and the TGI [3] was 25.1 µM. The GI50 [4] was 3.47 µM, the TGI [4] was greater than 35.4 µM and the GI50 [5] was 2.97 µM. It also gave a TGI [5] of 20.2 µM, a GI50 [6] of 2.1 µM and a TGI [6] of 4.76 µM. For the same compound, the GI50 [7] was 6.11 µM, the TGI [7] was 18 µM and the GI50 [8] was 7.57 µM. For the same compound, the TGI [8] was 38.3 µM, the GI50 [9] was 5.61 µM and the TGI [9] was 29.5 µM. It also gave a GI50 [10] of 3.84 µM, a TGI [10] of 16.8 µM and a GI50 [11] of 5.67 µM. It also gave a TGI [11] greater than 45.1 µM, a GI50 [12] of 3.39 µM and a TGI [12] of 12.3 µM. For the same compound, the GI50 [13] was 7.9 µM and the TGI [13] was 52.7 µM.
